Reference: ChEMBL document CHEMBL2150925, “The Synthesis and Antimicrobial Activity of Heterocyclic Derivatives of Totarol” (ACS Med Chem Lett, 2012)
pIC50: −log10 of the molar value. In brackets after ≈: the same amount, converted by molar mass. Activity calls are given as the source filed them. The calls are words filed in the database; no cut-off is given here.

Legend:
[1] = system: Bacillus subtilis; assay: Antibacterial activity against Bacillus subtilis 168 after 16 hrs; assay type: functional; settings: subsp. subtilis str. 168, 16 h
[2] = molecular target: T1, Cell division protein FtsZ (Bacillus subtilis (strain 168)) (UniProt P17865); assay: Inhibition of Bacillus subtilis FtsZ GTPase activity up to 64 uM by enzyme-coupled assay
T1 sequence (whole entry): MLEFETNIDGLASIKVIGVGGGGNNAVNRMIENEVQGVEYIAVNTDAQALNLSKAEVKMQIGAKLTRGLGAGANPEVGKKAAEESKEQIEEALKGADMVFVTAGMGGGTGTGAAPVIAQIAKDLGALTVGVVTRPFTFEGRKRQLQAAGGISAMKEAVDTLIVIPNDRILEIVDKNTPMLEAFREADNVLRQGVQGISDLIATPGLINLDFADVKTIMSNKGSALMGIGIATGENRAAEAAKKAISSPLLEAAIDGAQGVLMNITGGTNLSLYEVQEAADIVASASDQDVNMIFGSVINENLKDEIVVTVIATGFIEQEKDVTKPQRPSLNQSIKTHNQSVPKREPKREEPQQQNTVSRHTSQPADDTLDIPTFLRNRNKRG

[3] = system: Bacillus subtilis; assay: Ratio of totarol MIC to compound MIC for Bacillus subtilis 168; assay type: functional, subsp. subtilis str. 168
[4] = molecular target: T2, Cell division protein FtsZ (Bacillus subtilis (strain 168), UniProt P17865); assay: Inhibition of Bacillus subtilis FtsZ GTPase activity by enzyme-coupled assay
T2 sequence (P17865 whole entry): T1 sequence (whole entry)

[5] = molecular target: T1, Cell division protein FtsZ (Bacillus subtilis (strain 168)); assay: Inhibition of Bacillus subtilis FtsZ GTPase activity by enzyme-coupled assay in presence of 0.01% triton X-100

| SMILES | MIC [1] [µM] | also measured |
| --- | --- | --- |
| Cc1ccc2c3c([nH]c2c1C)C(C)(C)[C@@H]1CCc2c(ccc(O)c2C(C)C)[C@@]1(C)C3 (racemic) | 11 (≈ 4.42 µg/mL) |  |
| CCc1ccc2[nH]c3c(c2c1)C[C@]1(C)c2ccc(O)c(C(C)C)c2CC[C@H]1C3(C)C (racemic) | 2.5 (≈ 1 µg/mL) |  |
| CCc1cccc2c3c([nH]c12)C(C)(C)[C@@H]1CCc2c(ccc(O)c2C(C)C)[C@@]1(C)C3 (racemic) | 1 (≈ 0.402 µg/mL) |  |
| CC(C)c1c(O)ccc2c1CC[C@H]1C(C)(C)c3[nH]ncc3C[C@]21C | > 160 |  |
| CC(=O)N1C[C@H]2C(C)(C)CCC[C@]2(C)c2ccc(O)c(C(C)C)c21 | > 256 |  |
| CC(C)c1c(O)ccc2c1CC[C@H]1C(C)(C)c3[nH]c4c(Cl)cc(Cl)cc4c3C[C@]21C (racemic) | 0.78 (≈ 0.345 µg/mL) |  |
| CC(C)c1c(O)ccc2c1CC[C@H]1C(C)(C)c3[nH]c4ccc(S(N)(=O)=O)cc4c3C[C@]21C (racemic) | 5.5 (≈ 2.49 µg/mL) |  |
| CC(C)c1c(O)ccc2c1CC[C@H]1C(C)(C)c3[nH]c4ccc(C(F)(F)F)cc4c3C[C@]21C (racemic) | 0.78 (≈ 0.344 µg/mL) |  |
| CC(C)c1c(O)ccc2c1CC[C@H]1C(C)(C)c3oncc3C[C@]21C | 40 (≈ 13 µg/mL) |  |
| CN[C@H](CC(C)C)C(=O)N[C@H]1C(=O)N[C@@H](CC(N)=O)C(=O)N[C@H]2C(=O)N[C@H]3C(=O)N[C@H](C(=O)N[C@H](C(=O)O)c4cc(O)cc(O)c4-c4cc3ccc4O)[C@H](O)c3ccc(c(Cl)c3)Oc3cc2cc(c3O[C@@H]2O[C@H](CO)[C@@H](O)[C@H](O)[C@H]2O[C@H]2C[C@](C)(N)[C@H](O)[C@H](C)O2)Oc2ccc(cc2Cl)[C@H]1O [VANCOMYCIN] | 0.63 (≈ 0.913 µg/mL) |  |
| CC(C)c1c(O)ccc2c1CC[C@H]1C(C)(C)c3[nH]c4c(O)cccc4c3C[C@]21C (racemic) | 6.3 (≈ 2.45 µg/mL) |  |
| CC(C)c1c(O)ccc2c1NC[C@H]1C(C)(C)CCC[C@]21C | 20 (≈ 5.75 µg/mL) |  |
| CC(C)c1c(O)ccc2c1CC[C@H]1C(C)(C)c3[nH]c4ccc(C#N)cc4c3C[C@]21C (racemic) | 0.78 (≈ 0.311 µg/mL) | inhibition [2]: inactive |
| COc1ccc2c(c1C(C)C)CC[C@H]1C(C)(C)c3[nH]c4ccc(C#N)cc4c3C[C@]21C (racemic) | > 100 |  |
| COc1ccc2c(c1C(C)C)CC[C@H]1C(C)(C)C(=O)/C(=C\O)C[C@]21C | > 160 |  |
| CC(C)c1c(O)ccc2c1CC[C@H]1C(C)(C)c3c(cnn3-c3ccccc3)C[C@]21C | > 160 |  |
| CC(C)c1c(O)ccc2c1CC[C@H]1C(C)(C)c3[nH]c4ccccc4c3C[C@]21C | 2.5 (≈ 0.934 µg/mL) | inhibition [2]: inactive; Ratio [3]: 4 |
| CC(C)c1c(O)ccc2c1CC[C@H]1C(C)(C)c3[nH]c4ccc(F)cc4c3C[C@]21C (racemic) | 80 (≈ 31.3 µg/mL) |  |
| CC(C)c1c(O)ccc2c1CC[C@H]1C(C)(C)/C(=N/O)CC[C@]21C | > 160 |  |
| CC(C)c1c(O)ccc2c1CC[C@H]1C(C)(C)CCC[C@]21C [TOTAROL] | 2.5 (≈ 0.716 µg/mL) | pIC50 [4]: 4.62; inhibition [5]: inactive |
| CC(C)c1c(O)ccc2c1CC[C@H]1C(C)(C)NC(=O)CC[C@]21C | > 160 |  |
| CC(C)c1c(O)ccc2c1CC[C@H]1C(C)(C)C(N)CC[C@]21C (some centres not stated) | > 160 |  |
